Among the data in patent publication US9643974B2, “Amino-substituted imidazopyridazines” (Bayer Intellectual Property GmbH, priority 2011, dated 2017) are IC50 values, retold here.

In assay [1] the target is T1, human full-lengt MKNK1 (Homo sapiens, UniProt Q9BUB5, T385D).
T1 construct: purchased Carna Biosciences 02-145; host or cells: insect cells (baculovirus expression system)
In words: MKNK1 kinase assay (MKNK1 TR-FRET assay). In kind it is biochemical. Conditions: ATP final conc. 10 μM, 15 min preincubation, 45 min reaction at 22° C. The text has this: MKNK1-inhibitory activity of compounds of the present invention was quantified employing the MKNK1 TR-FRET assay as described in the following paragraphs.
A recombinant fusion protein of Glutathione-S-Transferase (GST, N-terminally) and human full-lengt MKNK1 (amino acids 1-424 and T344D of accession number BAA 19885.1), expressed in insect cells using baculovirus expression system and purified via glutathione sepharose affinity chromatography, was purchased from Carna Biosciences (product no 02-145) and used as enzyme. As substrate for the kinase reaction the biotinylated peptide biotin-Ahx-IKKRKLTRRKSLKG (C-terminus in amide form) was used which can be purchased e.g. form the company Biosyntan (Berlin-Buch, Germany).
(§1) For the assay 50 nL of a 100 fold concentrated solution of the test compound in DMSO was pipetted into a black low volume 384 well microtiter plate (Greiner Bio-One, Frickenhausen, Germany), 2 μL of a solution of MKNK1 in aqueous assay buffer [50 mM HEPES pH 7.5, 5 mM magnesium chloride, 1.0 mM dithiothreitol, 0.005% (v/v) Nonidet-P40 (Sigma)] was added and the mixture was incubated for 15 min at 22° C. to allow pre-binding of the test compounds to the enzyme before the start of the kinase reaction. Then the kinase reaction was started by the addition of 3 μL of a solution of adenosine-tri-phosphate (ATP, 16.7 μM=>final conc. in the 5 μL assay volume is 10 μM) and substrate (0.1 μM=>final conc. in the 5 μL assay volume is 0.06 μM) in assay buffer and the resulting mixture was incubated for a reaction time of 45 min at 22° C. The concentration of MKNK1 was adjusted depending of the activity of the enzyme lot and was chosen appropriate to have the assay in the linear range, typical concentrations were in the range of 0.05 μg/ml. The reaction was stopped by the addition of 5 μL of a solution of TR-FRET detection reagents (5 nM streptavidine-XL665 [Cisbio Bioassays, Codolet, France] and 1 nM anti-ribosomal protein S6 (pSer236)-antibody from Invitrogen [#44921G] and 1 nM LANCE EU-W1024 labeled ProteinG [Perkin-Elmer, product no. AD0071]) in an aqueous EDTA-solution (100 mM EDTA, 0.1% (w/v) bovine serum albumin in 50 mM HEPES pH 7.5).
The resulting mixture was incubated for 1 h at 22° C. to allow the formation of complex between the phosphorylated biotinylated peptide and the detection reagents. Subsequently the amount of phosphorylated substrate was evaluated by measurement of the resonance energy transfer from the Eu-chelate to the streptavidine-XL. Therefore, the fluorescence emissions at 620 nm and 665 nm after excitation at 350 nm were measured in a TR-FRET reader, e.g. a Rubystar (BMG Labtechnologies, Offenburg, Germany) or a Viewlux (Perkin-Elmer). The ratio of the emissions at 665 nm and at […] was taken as the measure for the amount of phosphorylated substrate. The data were normalised (enzyme reaction without inhibitor=0% inhibition, all other assay components but no enzyme=100% inhibition). Usually the test compounds were tested on the same microtiterplate in 11 different concentrations in the range of 20 μM to 0.1 nM (20 μM, 5.9 μM, 1.7 μM, 0.51 μM, 0.15 μM, 44 nM, 13 nM, 3.8 nM, 1.1 nM, 0.33 nM and 0.1 nM, the dilution series prepared separately before the assay on the level of the 100 fold concentrated solutions in DMSO by serial 1:3.4 dilutions) in duplicate values for each concentration and […] were calculated by a 4 parameter fit.
(In general: In TR-FRET formats the signal depends on donor and acceptor labels being close together.)

Assay [2] deals with T2, human full-length MKNK1 (Homo sapiens, UniProt Q9BUB5, T385D).
T2 construct: purchased Carna Biosciences 02-145; host or cells: insect cells (baculovirus expression system)
T2 sequence (Q9BUB5 1-424 isoform Q9BUB5-2 T344D): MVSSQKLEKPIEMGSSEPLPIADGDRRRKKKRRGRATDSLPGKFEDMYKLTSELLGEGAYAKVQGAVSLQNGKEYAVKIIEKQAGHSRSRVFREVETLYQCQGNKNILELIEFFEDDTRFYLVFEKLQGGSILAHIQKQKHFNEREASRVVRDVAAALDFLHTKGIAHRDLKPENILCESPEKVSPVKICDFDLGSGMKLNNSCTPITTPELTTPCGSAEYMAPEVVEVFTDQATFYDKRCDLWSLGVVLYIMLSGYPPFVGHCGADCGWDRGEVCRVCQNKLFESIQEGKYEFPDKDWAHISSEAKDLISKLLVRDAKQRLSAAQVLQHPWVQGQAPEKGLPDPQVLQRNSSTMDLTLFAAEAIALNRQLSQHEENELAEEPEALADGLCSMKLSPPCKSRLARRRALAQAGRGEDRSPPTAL
Put plainly: MKNK1 kinase high ATP assay (TR-FRET-based). Conditions: ATP final conc. 2 mM, 15 min preincubation, 30 min reaction at 22° C. In kind it is biochemical. Here is the method:
MKNK1 Kinase High ATP Assay
MKNK1-inhibitory activity at high ATP of compounds of the present invention after their preincubation with MKNK1 was quantified employing the TR-FRET-based MKNK1 high ATP assay as described in the following paragraphs.
A recombinant fusion protein of Glutathione-S-Transferase (GST, N-terminally) and human full-length MKNK1 (amino acids 1-424 and T344D of accession number BAA 19885.1), expressed in insect cells using baculovirus expression system and purified via glutathione sepharose affinity chromatography, was purchased from Carna Biosciences (product no 02-145) and used as enzyme. As substrate for the kinase reaction the biotinylated peptide biotin-Ahx-IKKRKLTRRKSLKG (C-terminus in amide form) was used, which can be purchased e.g. from the company Biosyntan (Berlin-Buch, Germany).
as §1, with “3.3 mM=>final” for “16.7 μM=>final”, “2 mM)” for “10 μM)”, “30” for “45”, “0.003 μg/mL.” for “0.05 μg/ml.”
The resulting mixture was incubated for 1 h at 22° C. to allow the formation of complex between the phosphorylated biotinylated peptide and the detection reagents. Subsequently the amount of phosphorylated substrate was evaluated by measurement of the resonance energy transfer from the Eu-chelate to the streptavidine-XL. Therefore, the fluorescence emissions at 620 nm and 665 nm after excitation at 350 nm were measured in a TR-FRET reader, e.g. a Rubystar (BMG Labtechnologies, Offenburg, Germany) or a Viewlux (Perkin-Elmer). The ratio of the emissions at 665 nm and at […] was taken as the measure for the amount of phosphorylated substrate. The data were normalised (enzyme reaction without inhibitor=0% inhibition, all other assay components but no enzyme=100% inhibition).

Counter-ions that a name gives are not always drawn.

T1 sequence (Q9BUB5 1-424 isoform Q9BUB5-2 T344D): as above

As a reminder, the IC50 is the concentration needed to halve the response being measured. A higher IC50 goes with weaker potency. Take `C[C@@H](N)COc1ccc2ncc(-c3cc4cnccc4o3)n2n1` [Example 26, (2R)-1-{[3-(Furo[3,2-c]pyridin-2-yl)imidazo[1,2-b]pyridazin-6-yl]oxy}propan-2-amine]: the IC50 in assay [1] came out at 100 nM; in assay [2] it was 216 nM.

As for `COc1nccc2oc(-c3cnc4ccc(O[C@H]5CCC[C@@H]5N)nn34)cc12` [Example 31, (1S,2S)-2-{[3-(4-Methoxyfuro[3,2-c]pyridin-2-yl)imidazo[1,2-b]pyridazin-6-yl]-oxy}cyclopentanamine], the concentration for half-maximal inhibition (IC50) amounted to 13 nM in assay [1] and 28 nM in assay [2].

Regarding `C[C@H](N)COc1ccc2ncc(-c3cc4c(OC5CCC5)nccc4o3)n2n1` [Example 41, (2S)-1-({3-[4-(Cyclobutyloxy)furo[3,2-c]pyridin-2-yl]imidazo[1,2-b]pyridazin-6-yl}oxy)propan-2-amine], the midpoint of inhibition in assay [2], the IC50, lay at 19 nM.

`N[C@H]1C[C@H](Oc2ccc3ncc(-c4cc5ncccc5o4)n3n2)C1` [Example 28, trans-3-{[3-(Furo[3,2-b]pyridin-2-yl)imidazo[1,2-b]pyridazin-6-yl]oxy}cyclobutanamine]: the half-maximal inhibitory concentration (IC50) in assay [1] was 7 nM; in assay [2], 13 nM.

For `COc1nccc2oc(-c3cnc4ccc(OCC(CN)c5ccccc5)nn34)cc12` (centres unmarked) [Example 23, 3-{[3-(4-Methoxyfuro[3,2-c]pyridin-2-yl)imidazo[1,2-b]pyridazin-6-yl]oxy}-2-phenylpropan-1-amine], the IC50 was 32 nM in assay [1] and 57 nM in assay [2].

For `C[C@H](N)COc1ccc2ncc(-c3cc4c(OCC(C)(C)C)nccc4o3)n2n1` [Example 34, (2S)-1-({3-[4-(2,2-Dimethylpropoxy)furo[3,2-c]pyridin-2-yl]imidazo[1,2-b]-pyridazin-6-yl}oxy)propan-2-amine], the 50% inhibitory concentration (IC50) in assay [1] was 5 nM; in assay [2], 15 nM.

Regarding `CCN(C(=O)OC(C)(C)C)c1nccc2oc(-c3cnc4ccc(OC[C@H](C)N)nn34)cc12` [Example 39, tert-Butyl[2-(6-{[(2S)-2-aminopropyl]oxy}imidazo[1,2-b]pyridazin-3-yl)-furo[3,2-c]pyridin-4-yl]ethylcarbamate], the figures for the IC50 in assay [1] and in assay [2] were 250 nM and 593 nM, respectively.

For `COc1nccc2oc(-c3cnc4ccc(OC[C@H](N)c5ccccc5)nn34)cc12` [Example 9, (1R)-2-{[3-(4-Methoxyfuro[3,2-c]pyridin-2-yl)imidazo[1,2-b]pyridazin-6-yl]oxy}-1-phenylethanamine], the IC50 in assay [1] turned out to be 48 nM; in assay [2], 94 nM.

Consider `COc1nccc2oc(-c3cnc4ccc(O[C@H]5C[C@H](N)C5)nn34)cc12` [Example 2, trans-3-{[3-(4-Methoxyfuro[3,2-c]pyridin-2-yl)imidazo[1,2-b]pyridazin-6-yl]-oxy}cyclobutanamine], for which the concentration for half-maximal inhibition (IC50) came out at 3 nM in assay [1] and 5 nM in assay [2].

For the compound `COc1nccc2oc(-c3cnc4ccc(OC[C@H](N)COCc5ccccc5)nn34)cc12` [Example 11, (2R)-1-(Benzyloxy)-3-{[3-(4-methoxyfuro[3,2-c]pyridin-2-yl)imidazo[1,2-b]-pyridazin-6-yl]oxy}propan-2-amine], the values for the IC50 in assay [1] and in assay [2] were 17 nM and 59 nM, respectively.

In the case of `C[C@H](N)COc1ccc2ncc(-c3cc4ccncc4o3)n2n1` [Example 12, (2S)-1-{[3-(Furo[2,3-c]pyridin-2-yl)imidazo[1,2-b]pyridazin-6-yl]oxy}propan-2-amine], the concentration for half-maximal inhibition (IC50) in assay [1] came to 26 nM; in assay [2], 65 nM.

Turning to `N[C@H]1C[C@H](Oc2ccc3ncc(-c4cc5cnccc5o4)n3n2)C1` [Example 14, trans-3-{[3-(Furo[3,2-c]pyridin-2-yl)imidazo[1,2-b]pyridazin-6-yl]oxy}cyclobutanamine salt with formic acid], the IC50 in assay [1] worked out at 5 nM; in assay [2] it was 34 nM.

Turning to `N[C@H]1C[C@H](Oc2ccc3ncc(-c4cc5c(O)nccc5o4)n3n2)C1` [Example 35, 2-{6-[(trans-3-Aminocyclobutyl)oxy]imidazo[1,2-b]pyridazin-3-yl}furo[3,2-c]-pyridin-4-ol], the results for the IC50 in assay [1] and in assay [2] were 21 nM and 44 nM, respectively.

For the compound `CC(C)(C)COc1nccc2oc(-c3cnc4ccc(O[C@H]5C[C@H](N)C5)nn34)cc12` [Example 24, trans-3-({3-[4-(2,2-Dimethylpropoxy)furo[3,2-c]pyridin-2-yl]imidazo[1,2-b]-pyridazin-6-yl}oxy)cyclobutanamine], the IC50 stood at 3 nM in assay [1] and 4 nM in assay [2].

For `COc1nccc2oc(-c3cnc4ccc(OCC5(CN)COC5)nn34)cc12` [Example 27, 1-[3-({[3-(4-Methoxyfuro[3,2-c]pyridin-2-yl)imidazo[1,2-b]pyridazin-6-yl]-oxy}methyl)oxetan-3-yl]methanamine], the IC50 came to 153 nM in assay [1] and 259 nM in assay [2].

`CC(C)Oc1nccc2oc(-c3cnc4ccc(OC[C@H](C)N)nn34)cc12` [Example 19, (2S)-1-({3-[4-(Propan-2-yloxy)furo[3,2-c]pyridin-2-yl]imidazo[1,2-b]pyridazin-6-yl}oxy)propan-2-amine]: the 50% inhibitory concentration (IC50) came to 17 nM in assay [1] and 34 nM in assay [2].

Turning to `C[C@@H](N)COc1ccc2ncc(-c3cc4c(OC5CCC5)nccc4o3)n2n1` [Example 42, (2R)-1-({3-[4-(Cyclobutyloxy)furo[3,2-c]pyridin-2-yl]imidazo[1,2-b]pyridazin-6-yl}oxy)propan-2-amine], the IC50 in assay [2] was determined as 26 nM.
